Reference: patent publication US20230055705A1, “SUBSTITUTED THIOPHENE CARBOXAMIDES AND DERIVATIVES THEREOF” (Bayer Aktiengesellschaft, priority 2019, published 2023)

How the values were obtained:
[1] = tested on: salicylate responsive promoter sequence of the PR1 (pathogenesis-related protein I) gene (AT2G14610); assay: Induction of defense gene expression in Arabidopsis thaliana (PR1 promoter-GFP reporter plants); assay type: in vivo; conditions: Arabidopsis thaliana, 72 h, 3rd day after spraying, mock treated leaves set as 1.00, read-out: relative fluorescence value; for fold induction at 75 ppm: 75 ppm of compound
Method in brief: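 Transgenic A. thaliana carrying GFP under the salicylate-responsive PR1 promoter, grown five days, then sprayed with compounds. Whole-plant fluorescence imaged and quantified on day 3 post-spray, expressed relative to mock-treated leaf background set at 1.00.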

Alternaria alternata = Alternaria alternata in vitro cell test; assay type: cell-based; conditions: 120 h, 20 ppm of active ingredient, 5 days incubation, read-out: efficacy (inhibition of fungal growth)
Method: (§1) • Solvent: DMSO • Culture medium: 14.6 g anhydrous D-glucose (VWR), 7.1 g Mycological Peptone (Oxoid), 1.4 g granulated Yeast Extract (Merck), QSP 1 liter • Inoculum: spores suspension
(§2) Fungicides were solubilized in DMSO and the solution used to prepare the required range of concentrations. The final concentration of DMSO used in the assay was ≤[…]1%.
A spore suspension of A. alternata was prepared and diluted to the desired spore density.
(§3) Fungicides were evaluated for their ability to inhibit spore germination and mycelium growth in liquid culture assay. The compounds were added in the desired concentration to the culture medium with spores. After 5 days incubation, fungi-toxicity of compounds was determined by spectrometric measurement of mycelium growth. Inhibition of fungal growth was determined by comparing the absorbance values in wells containing the fungicides with the absorbance in control wells without fungicides.

[2] = tested on: Colletotrichum lindemuthianum; assay: Colletotrichum lindemuthianum in vitro cell test; assay type: cell-based; conditions: 144 h, 20 ppm of active ingredient, 6 days incubation, read-out: efficacy (inhibition of fungal growth)
Method: as §1, §2
A spore suspension of C. lindemuthianum was prepared and diluted to the desired spore density.
as §3, with “inhibit spores” for “inhibit spore”, “After 6” for “After 5”

[3] = tested on: Xanthomonas campestris pv. campestris; assay: Xanthomonas campestris pv. campestris in vitro cell test; assay type: cell-based; conditions: 20 ppm of active ingredient, 24 h incubation, read-out: efficacy (inhibition of bacteria growth)
Method: • Solvent: DMSO • Culture medium: LB broth medium (Luria Broth Miller) Sigma • Inoculum: bacteria suspension
Compounds were solubilized in DMSO and the solution used to prepare the required range of concentrations. The final concentration of DMSO used in the assay was ≤1%.
(§4) Inoculum was prepared from a pre-culture of bacteria grown in liquid medium and diluted to the desired optical density (OD).
(§5) Compounds were evaluated for their ability to inhibit bacteria growth in liquid culture assay. The compounds were added in the desired concentrations to culture medium containing the bacteria suspension. After 24 h of incubation, the efficacy of compounds was determined by spectrometric measurement of bacteria growth. Inhibition was determined by comparing the absorbance values in wells containing the compounds with the absorbance in control wells without active ingredients.

[4] = tested on: Pseudomonas syringae pv. tomato; assay: Pseudomonas syringae pv. tomato in vitro cell test; assay type: cell-based; conditions: 20 ppm of active ingredient, 24 h incubation, read-out: efficacy (inhibition of bacteria growth)
Method: Culture medium: LB broth medium (Luria Broth Miller) Sigma
Inoculum: bacteria suspension
Compounds were solubilized in DMSO and the solution used to prepare the required range of concentrations. The final concentration of DMSO used in the assay was 1%.
as §4, §5

Peronospora parasitica = assay: In vivo preventive test on Peronospora parasitica (Crucifer downy mildew); conditions: Hyaloperonospora parasitica, in Brassica oleracea, 120 h, cabbage, evaluated 5 days after inoculation, read-out: efficacy; for pest or weed control at 31 ppm: 31 ppm of active ingredient; for pest or weed control at 125 ppm: 125 ppm of active ingredient
Method in brief: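 Young cabbage plants were sprayed with compound in acetone/DMSO/Tween diluted with water, then inoculated 72 h later with a Peronospora parasitica spore suspension. Plants were kept 5 days at 20 °C and 100% RH. Efficacy was scored with 0% equal to solvent-treated controls and 100% meaning no disease.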

Uromyces appendiculatus = assay: In vivo preventive test on Uromyces appendiculatus (bean rust); conditions: 240 h, 125 ppm of active ingredient, evaluated 10 days after inoculation, read-out: efficacy
Method in brief: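 Young bean plants sprayed with compound in acetone/DMSO/Tween diluted in water, inoculated 72 h later with U. appendiculatus spore suspension. Held 24 h at 20 °C, 100% RH, then 9 days at 20 °C, 70-80% RH. Efficacy scored 10 days post-inoculation versus solvent-treated controls (0% = control, 100% = no disease).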

[5] = tested on: Pseudomonas syringae pv. tomato; assay: In vivo preventive test on Pseudomonas syringae pv. tomato (bacterial speck on tomato); conditions: 31 ppm of active ingredient, evaluated 5 or 6 days after inoculation, read-out: efficacy
Method in brief: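 Young tomato plants sprayed with compound in acetone/DMSO/Tween diluted in water; solvent-only controls. Inoculated 72 h later by spraying leaves with bacterial suspension; 4 days saturated atmosphere then 1–2 days at 70–80% RH, 22 °C day/20 °C night. Efficacy scored 5–6 days post-inoculation, 0% = control, 100% = no disease.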

[6] = LogP by HPLC on reversed phase columns (EEC directive 79/831 Annex V.A8); assay type: physicochemical; conditions: reversed phase HPLC columns
Method in brief: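 Reversed-phase HPLC per EEC directive 79/831 Annex V.A8. Calibrated with straight-chain alkan-2-ones (C3–C16) of known LogP, LogP from retention times by linear interpolation between successive alkanones. Lambda-max taken from UV spectra (200–400 nm) at chromatographic peak maxima.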

[7] = tested on: Xanthomonas campestris pv. campestris; assay: In vivo preventive test on Xanthomonas campestris pv. campestris (black rot on cabbage); conditions: 31 ppm of active ingredient, evaluated 8 or 10 days after inoculation, read-out: efficacy
Method in brief: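 Young cabbage plants sprayed with compound in acetone/DMSO/Tween diluted in water; solvent-only controls. Leaves sprayed with bacterial suspension 72 h later, then held 8 or 10 days at 27° C and 95% relative humidity. Efficacy scored 8 or 10 days post-inoculation, 0% matching controls, 100% meaning no disease.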

young plants of cabbage [8] = assay: Phytotoxicity observed in the in vivo preventive test on Xanthomonas campestris pv. campestris; conditions: for phytotoxicity: 125 ppm
Method: The young plants of cabbage were treated by spraying the active ingredient prepared as described above. Control plants were treated only with an aqueous solution of acetone/Dimethyl sulfoxide/Tween®.
After 72 hours, the plants were contaminated by spraying the leaves with an aqueous bacteria suspension of Xanthomonas campestris pv. campestris. The contaminated cabbage plants were incubated for 8 or 10 days at 27° C. at 95% relative humidity.
Compounds CMP1, CMP2, CMP3 and CMP4 were tested in an in vivo preventive test on Xanthomonas campestris pv. campestris (black rot on cabbage) in the same conditions as described in Example H.

young plants of cabbage [9] = assay: Phytotoxicity observed in the in vivo preventive test on Peronospora parasitica; conditions: for phytotoxicity: 500 ppm
Method: The tested active ingredients were prepared by homogenization in a mixture of acetone/Dimethyl sulfoxide/Tween®, and then diluted with water to obtain the desired active material concentration. The young plants of cabbage were treated by spraying the active ingredient prepared as described above. Control plants were treated only with an aqueous solution of acetone/Dimethyl sulfoxide/Tween®.
After 72 hours, the plants were contaminated by spraying the leaves with an aqueous suspension of Peronospora parasitica spores. The contaminated cabbage plants were incubated for 5 days at 20° C. and at 100% relative humidity.
Compounds CMP2 and CMP3 were tested in an in vivo preventive test on Peronospora parasitica (Crucifer downy mildew) in the same conditions as described in Example G.

[10] = tested on: Colletotrichum lindemuthianum; assay: In vivo preventive test on Colletotrichum lindemuthianum (Antrachnose on bean); conditions: 144 h, 31 ppm of active ingredient, inoculation 72 h after spraying, evaluated 6 days after inoculation, read-out: efficacy
Method in brief: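 Young bean plants sprayed preventively with compound in acetone/DMSO/Tween diluted in water, then spore-inoculated 72 h later. Incubation 24 h at 20° C./100% RH, then 5 days at 20° C./90% RH; scored 6 days post-inoculation as % efficacy (0% = solvent-treated control, 100% = no disease).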

[11] = method [a]: LC-UV, in an acidic range, with 0.1% formic acid in water and acetonitrile as eluent (linear gradient from 10% to 95% acetonitrile)
[12] = method [a]: LC-UV, acidic range, 0.1% formic acid in water and acetonitrile as eluent (linear gradient 10% to 95% acetonitrile)

chromatographic logP [6, 11] | chromatographic logP [6, 12] | chromatographic logP ([6]; given in the preparation examples, method not marked) | Compound | fold induction at 75 ppm [1] | fold induction at 300 ppm [1] | inhibition at 20 ppm (Alternaria alternata) [%] | inhibition at 20 ppm [2] [%] | inhibition at 20 ppm [3] [%] | inhibition at 20 ppm [4] [%] | pest or weed control at 31 ppm (Peronospora parasitica) [%] | pest or weed control at 125 ppm (Peronospora parasitica) [%] | pest or weed control at 125 ppm (Uromyces appendiculatus) [%] | pest or weed control at 31 ppm [5] [%] | pest or weed control at 31 ppm [7] [%] | phytotoxicity (in place of Efficacy (%) at 125 ppm) (young plants of cabbage [8]) | phytotoxicity (young plants of cabbage [8]) | phytotoxicity (in place of Efficacy (%) at 500 ppm) (young plants of cabbage [9]) | phytotoxicity (young plants of cabbage [9]) | pest or weed control at 31 ppm [10] [%]
3.31 |  |  | COC(=O)C(NC(=O)c1sc(Cl)c(Cl)c1Cl)C(=O)OC [I.007] | > 2 | > 2 | ≤ 30 | ≤ 30 | ≤ 30 | ≤ 30 | 90 to 100 | 90 to 100 | 90 to 100 | 80 to 89 |  |  |  |  |  | 
 |  |  | CCOC(=O)[C@H](C)NC(=O)c1sc(Cl)c(Cl)c1Cl [CMP3] |  |  |  |  |  |  |  |  |  |  | 0 | * (No efficacy measured due to over 80% phytotoxicity observed) | over 80% | * (No efficacy measured due to over 80% phytotoxicity observed) | over 80% | 
 | 4.21 |  | CCOC(=O)CC[C@H](NC(=O)c1sc(Cl)c(Cl)c1Cl)C(=O)OCC [I.137] | > 2 | > 2 | ≤ 30 | ≤ 30 | ≤ 30 | ≤ 30 | 90 to 100 | 90 to 100 | 90 to 100 |  | 80 to 89 |  |  |  |  | 80 to 89
 | 3.36 |  | COC(=O)CC[C@H](NC(=O)c1sc(Cl)c(Cl)c1Cl)C(=O)OC [I.139] | > 2 | > 2 | ≤ 30 | ≤ 30 | ≤ 30 | ≤ 30 | 90 to 100 | 90 to 100 | 90 to 100 | 80 to 89 |  |  |  |  |  | 70 to 79
1.89 |  | 1.89 | NC(=O)CNC(=O)c1sc(Cl)c(Cl)c1Cl [I.066, N-(2-amino-2-oxoethyl)-3,4,5-trichlorothiophene-2-carboxamide] | > 2 | > 2 | ≤ 30 | ≤ 30 | ≤ 30 | ≤ 30 | 90 to 100 | 90 to 100 | 90 to 100 | 80 to 89 |  |  |  |  |  | 70 to 79
 |  |  | COC(=O)[C@H](C)NC(=O)c1sc(Cl)c(Cl)c1Cl [CMP2] |  |  |  |  |  |  |  |  |  |  | < 40 | * (No efficacy measured due to over 80% phytotoxicity observed) | over 80% | * (No efficacy measured due to over 80% phytotoxicity observed) | over 80% | 
